Test results reported in patent EP4813980A1, “EP300/CBP REGULATOR, AND PREPARATION METHOD THEREFOR AND USE THEREOF” (Miracure Biotechnology Limited, priority 2023, dated 2025).

Experiments:
Assay in all cases: Cell growth inhibition, CellTiter-Glo, 72 h
Assay type in all cases: cell-based
OPM-2 cells = details: Homo sapiens, 72 h culture, mean of N=2
Procedure: (§1) 22RV1, vCap, MM1S and OPM-2 cells were cultured in RPMI-1640 medium (10% fetal bovine serum and 100 units of penicillin/streptomycin dual-antibody per mL were added to RPMI-1640) in a cell incubator at 37°C with 5% CO2, respectively. Cells in logarithmic growth phase were seeded into 96-well cell culture plates at 5×10^3 cells/100 µL/well and cultured overnight. Active compounds dissolved in DMSO at different concentrations were added with a final concentration of 0.5% DMSO. 1% Tween 20 was used as positive control and 0.5% DMSO was used as negative control. After 72 h of culture, an equal volume of CellTiter-Glo was added to each well, mixed by shaking for 2 min, and left standing at room temperature for 10 min. […] signal values were read with a microplate reader. Data were analyzed and graphs were generated using Prism 7.0. The values shown are mean ± SEM (N=2). […] The formula for inhibition rate is as follows: % Inhibition = (Icompound−IZPE)/(IHPE−IZPE) × 100 [formula]
(§2) The X-axis is compound concentration (nM), and the Y-axis is % Inhibition.

22RV1 cells = details: Homo sapiens, 72 h culture, mean of N=2
Procedure: as §1, §2

vCap cells = details: Homo sapiens, 72 h culture, mean of N=2
Procedure: as §1, §2

MM1S cells = details: Homo sapiens, MM1.S, 72 h culture, mean of N=2
Procedure: as §1, §2

SMILES	IC50 (OPM-2 cells)	IC50 (22RV1 cells)	IC50 (vCap cells)	IC50 (MM1S cells)
CC#CC(=O)N1CCC(c2cc3c(c(N4CCCc5cc(-c6cnn(C)c6)c(C(F)F)cc54)c2)CN(C(C)=O)C3)CC1 [Compound 1359]	15 nM	545 nM	–	–
C=C(F)C(=O)N1CCC(c2cc3c(c(N4CCCc5cc(-c6cnn(C)c6)c(C(F)F)cc54)c2)CN(C(C)=O)C3)CC1 [Compound 1365]	30 nM	3350 nM	–	–
C=CS(=O)(=O)N1CCC(c2cc3c(c(N4CCCc5cc(-c6cnn(C)c6)c(C(F)F)cc54)c2)CN(C(C)=O)CC3)CC1 [Compound 1368]	168 nM	1390 nM	–	–
CC(=O)N1Cc2cc(C3CCN(CCN4CCC(CNc5cccc6c5C(=O)N(C5CCC(=O)NC5=O)C6=O)CC4)CC3)cc(N3CCCc4cc(-c5cnn(C)c5)c(C(F)F)cc43)c2C1 (centres unmarked) [Compound 2019]	–	2.43 nM	1.25 nM	–
CC(=O)N1Cc2cc(C3CCN(CC4CCN(CCCc5cccc6c5C(=O)N(C5CCC(=O)NC5=O)C6=O)CC4)CC3)cc(N3CCCc4cc(-c5cnn(C)c5)c(C(F)F)cc43)c2C1 (centres unmarked) [Compound 2020]	–	1.87 nM	0.53 nM	–
CNC(=O)N1CCc2cc(C3CCN(CCN4CCC(CNc5cccc6c5C(=O)N(C5CCC(=O)NC5=O)C6=O)CC4)CC3)cc(N3CCCc4cc(-c5cnn(C)c5)c(C(F)F)cc43)c2C1 (centres unmarked) [Compound 2021]	–	0.5 nM	0.545 nM	–
CNC(=O)N1CCc2cc(C3CCN(CC4CCN(CCCc5cccc6c5C(=O)N(C5CCC(=O)NC5=O)C6=O)CC4)CC3)cc(N3CCCc4cc(-c5cnn(C)c5)c(C(F)F)cc43)c2C1 (centres unmarked) [Compound 2022]	–	0.3 nM	2.12 nM	–
COC(=O)N1Cc2cc(C3CCN(C(=O)CCOCCOCCOCCOCCNc4ccc5c(c4)C(=O)N(C4CCC(=O)NC4=O)C5=O)CC3)cc(N3CCCc4cc(-c5cnn(C)c5)c(C(F)F)cc43)c2C1 (centres unmarked) [Compound 2024]	–	3850 nM	4610 nM	–
CC(=O)N1CCc2cc(C3CCN(C(=O)CCCCCCCNc4ccc5c(c4)C(=O)N(C4CCC(=O)NC4=O)C5=O)CC3)cc(N3CCCc4cc(-c5cnn(C)c5)c(C(F)F)cc43)c2C1 (centres unmarked) [Compound 2025, 5-[[8-[4-[2-acetyl-8-[7-(difluoromethyl)-6-(1-methylpyrazol-4-yl)-3,4-dihydro-2H-quinolin-1-yl]-3,4-dihydro-1H-isoquinolin-6-yl]-1-piperidinyl]-8-oxooctyl]amino]-2-(2,6-dioxo-3-piperidinyl)isoindoline-1,3-dione]	–	3890 nM	7530 nM	–
CC(=O)N1Cc2cc(C3CCN(C(=O)CCCCCCNc4ccc5c(c4)n(C)c(=O)n5C4CCC(=O)NC4=O)CC3)cc(N3CCCc4cc(-c5cnn(C)c5)c(C(F)F)cc43)c2C1 (centres unmarked) [Compound 2027]	–	0.04 nM	0.01 nM	–
CNC(=O)N1CCc2cc(C3CCN(C(=O)CCCCCCNc4ccc5c(c4)n(C)c(=O)n5C4CCC(=O)NC4=O)CC3)cc(N3CCCc4cc(-c5cnn(C)c5)c(C(F)F)cc43)c2C1 (centres unmarked) [Compound 2028, 8-[7-(difluoromethyl)-6-(1-methylpyrazol-4-yl)-3,4-dihydro-2H-quinolin-1-yl]-6-[1-[7-[[1-(2,6-dioxo-3-piperidinyl)-3-methyl-2-oxo-benzimidazol-5-yl]amino]heptanoyl]-4-piperidinyl]-N-methyl-3,4-dihydro-1H-isoquinoline-2-carboxamide]	–	0.1 nM	0.26 nM	–
CC(=O)n1cc2cc(C3CCN(C(=O)CCCCCCOc4ccc5c(c4)n(C)c(=O)n5C4CCC(=O)NC4=O)CC3)cc(N3CCCc4cc(-c5cnn(C)c5)c(C(F)F)cc43)c2c1 (centres unmarked) [Compound 2029, 3-(5-((7-(4-(2-acetyl-7-(7-(difluoromethyl)-6-(1-methyl-1H-pyrazol-4-yl)-3,4-dihydroquinolin-1(2H)-yl)isoindol-5-yl)piperidin-1-yl)-7-oxoheptyl)oxy)-3-methyl-2-oxo-2,3-dihydro-1H-benzo[d]imidazol-1-yl)piperidine-2,6-dione]	–	0.04 nM	0.03 nM	–
CC(=O)N1Cc2cc(C3CCN(CCc4ccc(COc5cccc6c5CN(C5CCC(=O)NC5=O)C6=O)cc4)CC3)cc(N3CCCc4cc(-c5cnn(C)c5)c(C(F)F)cc43)c2C1 (centres unmarked) [Compound 2031]	–	0.04 nM	0.21 nM	–
CC(=O)N1Cc2cc(C3CCN(C(=O)CCCCC#Cc4ccc5c(c4)n(C)c(=O)n5C4CCC(=O)NC4=O)CC3)cc(N3CCCc4cc(-c5cnn(C)c5)c(C(F)F)cc43)c2C1 (centres unmarked) [Compound 2032, 3-{5-[7-(4-{2-acetyl-7-[7-(difluoromethyl)-6-(1-methylpyrazol-4-yl)-3,4-dihydro-2H-quinolin-1-yl]-1,3-dihydroisoindol-5-yl}piperidin-1-yl)-7-oxohept-1-yn-1-yl]-3-methyl-2-oxo-1,3-benzodiazol-1-yl}piperidine-2,6-dione]	–	0.16 nM	0.11 nM	–
CC(=O)n1cc2cc(C3CCN(C(=O)CN4CCC(C#Cc5cccc6c5n(C)c(=O)n6C5CCC(=O)NC5=O)CC4)CC3)cc(N3CCCc4cc(-c5cnn(C)c5)c(C(F)F)cc43)c2c1 (centres unmarked) [Compound 2048, 3-(4-((1-(2-(4-(2-acetyl-7-(7-(difluoromethyl)-6-(1-methyl-1H-pyrazol-4-yl)-3,4-dihydroquinolin-1(2H)-yl)isoindol-5-yl)piperidin-1-yl)-2-oxoethyl)piperidin-4-yl)ethynyl)-3-methyl-2-oxo-2,3-dihydro-1H-benzo[d]imidazol-1-yl)piperidine-2,6-dione]	–	1.84 nM	1.85 nM	–
CC(=O)N1Cc2cc(C3CCN(Cc4ccc(COc5cccc6c5CN(C5CCC(=O)N(CO)C5=O)C6=O)cc4)CC3)cc(N3CCCc4cc(-c5cnn(C)c5)c(C(F)F)cc43)c2C1 (centres unmarked) [Compound 2053]	–	1.02 nM	0.36 nM	–
CC(=O)N1Cc2cc(C3CCN(CC4CCN(CCOc5cccc6c5CN(C5CCC(=O)NC5=O)C6=O)CC4)CC3)cc(N3CCCc4cc(-c5cnn(C)c5)c(C(F)F)cc43)c2C1 (centres unmarked) [Compound 2054]	–	0.84 nM	0.26 nM	0.33 nM
CC(=O)N1Cc2cc(C3CCN(CCN4CCC(COc5cccc6c5CN(C5CCC(=O)NC5=O)C6=O)CC4)CC3)cc(N3CCCc4cc(-c5cnn(C)c5)c(C(F)F)cc43)c2C1 (centres unmarked) [Compound 2055]	–	0.54 nM	0.26 nM	–
CC(=O)N1Cc2cc(C3CCN(CC4CCN(CCNc5ccc6c(c5)CN(C5CCC(=O)NC5=O)C6=O)CC4)CC3)cc(N3CCCc4cc(-c5cnn(C)c5)c(C(F)F)cc43)c2C1 (centres unmarked) [Compound 2062]	–	0.24 nM	0.06 nM	0.04 nM
CC(=O)N1Cc2cc(C3CCN(CCN4CCC(CNc5ccc6c(c5)CN(C5CCC(=O)NC5=O)C6=O)CC4)CC3)cc(N3CCCc4cc(-c5cnn(C)c5)c(C(F)F)cc43)c2C1 (centres unmarked) [Compound 2063]	–	0.33 nM	–	0.28 nM
CC(=O)N1Cc2cc(C3CCN(Cc4ccc(COc5cccc6c5CN(C5CCC(=O)N(COC(=O)CN)C5=O)C6=O)cc4)CC3)cc(N3CCCc4cc(-c5cnn(C)c5)c(C(F)F)cc43)c2C1 (centres unmarked) [Compound 2064, (3-(4-((4-((2-acetyl-7-(7-(difluoromethyl)-6-(1-methyl-1H-pyrazol-4-yl)-3,4-dihydroquinolin-1(2H)-yl)isoindol-5-yl)piperidin-1-yl)methyl)benzyl)oxy)-1-oxoisoindolin-2-yl)-2,6-dioxopiperidin-1-yl)methyl glycinate]	–	0.23 nM	0.35 nM	–
CNC(=O)N1CCc2cc(C3CCN(CC4CCN(CCOc5cccc6c5CN(C5CCC(=O)NC5=O)C6=O)CC4)CC3)cc(N3CCCc4cc(-c5cnn(C)c5)c(C(F)F)cc43)c2C1 (centres unmarked) [Compound 2065]	–	0.41 nM	–	0.28 nM
CNC(=O)N1CCc2cc(C3CCN(CCc4ccc(COc5cccc6c5CN(C5CCC(=O)NC5=O)C6=O)cc4)CC3)cc(N3CCCc4cc(-c5cnn(C)c5)c(C(F)F)cc43)c2C1 (centres unmarked) [Compound 2066, 8-(7-(difluoromethyl)-6-(1-methyl-1H-pyrazol-4-yl)-3,4-dihydroquinolin-1(2H)-yl)-6-(1-(4-(((2-(2,6-dioxopiperidin-3-yl)-1-oxoisoindolin-4-yl)oxy)methyl)phenylethyl)piperidin-4-yl)-N-methyl-3,4-dihydroisoquinoline-2(1H)-carboxamide]	–	0.08 nM	–	0.23 nM
CC(=O)N1Cc2cc(C3CCN(CCC4CCN(c5ccc6c(c5)CN(C5CCC(=O)NC5=O)C6=O)CC4)CC3)cc(N3CCCc4cc(-c5cnn(C)c5)c(C(F)F)cc43)c2C1 (centres unmarked) [Compound 2069]	–	0.38 nM	–	0.36 nM
CC(=O)N1Cc2cc(C3CCN(CCN4CCN(c5ccc6c(c5)CN(C5CCC(=O)NC5=O)C6=O)CC4)CC3)cc(N3CCCc4cc(-c5cnn(C)c5)c(C(F)F)cc43)c2C1 (centres unmarked) [Compound 2070]	–	0.42 nM	–	0.34 nM
CC(=O)N1Cc2cc(C3CCN(CCN4CCC(COc5ccc6c(c5)CN(C5CCC(=O)NC5=O)C6=O)CC4)CC3)cc(N3CCCc4cc(-c5cnn(C)c5)c(C(F)F)cc43)c2C1 (centres unmarked) [Compound 2071]	–	0.5 nM	–	0.31 nM
CC(=O)N1Cc2cc(C3CCOCC3)cc(-c3cccc4cc(-c5ccc(C(=O)N6CCC(Nc7cccc8c7C(=O)N(C7CCC(=O)NC7=O)C8=O)CC6)nc5)ncc34)c2C1 (centres unmarked) [Compound 2074, 4-((1-(5-(8-(2-acetyl-6-(tetrahydro-2H-pyran-4-yl)isoindolin-4-yl)isoquinolin-3-yl)pyridinecarbonyl)piperidin-4-yl)amino)-2-(2,6-dioxopiperidin-3-yl)isoindoline-1,3-dione]	–	> 10000 nM	–	426 nM
